Test results taken from patent US20150182667A1, “Composition with Biofilm Dispersal Agents” (Vanderbilt University, priority 2012, published 2015).
Read-outs that look alike come from different tables or passages of the source.

Columns and labels:
[1] = system: planktonic S. aureus clinical strains (UAMS-1, 103-700); assay: MIC by CLSI broth microdilution, planktonic bacteria; format: cell-based, Staphylococcus aureus; settings: for MIC: Staphylococcus aureus, 18 h
Description: Overnight cultures of bacterial strains were diluted to a final concentration of 5×10^5 CFU/ml in MHB-II. The resulting bacterial suspension was aliquoted (100 μL) into polystyrene round-bottom 96-well plates containing 100 μL of a 2× concentration of a previously serially diluted (1:2) antibiotic. Each antimicrobial tested was serially diluted 10 times. Following the addition of bacteria, the microtiter plate was covered and was incubated under stationary conditions at 37° C. in the presence of 1× antibiotics. […] MICs of antibiotics were determined in triplicate according to the Clinical and Laboratory Standards Institute (CLSI) broth microdilution as described by the performance standards for antimicrobial susceptibility testing (M100-S22, January 2012).

[2] = system: biofilm derived S. aureus clinical strains (UAMS-1, 103-700); assay: Biofilm susceptibility, Calgary Biofilm device (MBEC plates): MBIC and viable CFU; format: cell-based, Staphylococcus aureus; settings: for Biofilm (MBIC) 103-700: S. aureus 103-700 48 h biofilm; for Biofilm (MBIC) 103-700 / Biofilm (MBIC) UAMS-1: 24 h challenge, * = with 5 mM D-AA; for Biofilm (MBIC) UAMS-1: S. aureus UAMS-1 48 h biofilm; for % Decrease + SD in CFU, 8 μg/mL / % Decrease + SD in CFU, 16 μg/mL / % Decrease + SD in CFU, 32 μg/mL / % Decrease + SD in CFU, 64 μg/mL: S. aureus UAMS-1 biofilm; for % Decrease + SD in CFU, 8 μg/mL: antibiotic 8 μg/mL; for % Decrease + SD in CFU, 16 μg/mL: antibiotic 16 μg/mL; for % Decrease + SD in CFU, 32 μg/mL: antibiotic 32 μg/mL; for % Decrease + SD in CFU, 64 μg/mL: antibiotic 64 μg/mL, vs non-treated biofilms; for effect of the antimicrobial against biofilms when combined with the D-AA mixture: S. aureus biofilms, both strains, bacterial CFUs within biofilms
Description: Biofilm susceptibility to antimicrobial agents in the presence and absence of D-AA was determined using the Calgary Biofilm device. Briefly, biofilms from overnight cultures were established as above on individual pegs of the minimum biofilm eradication concentration (MBEC) plates (Innovotech, Canada) with agitation for 48 h at 37° C. Following incubation, the lid with pegs was removed from the incubation plate, washed by re-suspending pegs into plate with wells containing 200 μl of 1×PBS, then placed into a 96-well challenge plate containing pre-diluted antibiotics with or without an […] for an additional 24 h at 37° C. Following challenge plates were washed, and the attached viable cells on PEGs within the biofilm were determined by plating serial dilutions onto blood agar plates (Remel). Corresponding minimal biofilm inhibitory concentration (MBIC) was also determined by measuring the optical density in individual wells of the challenge plate at 600 nm. The lowest concentration of antibiotic for which an optical density of <0.100 was recorded as the MBIC. For each antibiotic, the MBIC was determined in the presence or absence of a mixture of D-AA (D-Phenylalanine, D-Methionine, and D-Tryptophan) at an equimolar concentration of 5 mM. Three independent experiments were performed for each of these assays, with a minimum of 3 replicates.

[3] = S. aureus 103-700, agents marked * in combination with equimolar 5 mM D-AA, read-out: Planktonic (MIC) 103-700
[4] = S. aureus UAMS-1, agents marked * in combination with equimolar 5 mM D-Phenylalanine, D-Tryptophan, D-Methionine, read-out: Planktonic (MIC) UAMS-1
[5] = S. aureus 103-700, agents marked * in combination with equimolar 5 mM D-AA

MIC [1, 3] | MIC [1, 4] | Compound | Biofilm (MBIC) 103-700 [2] | Biofilm (MBIC) UAMS-1 [2] | % Decrease + SD in CFU, 8 μg/mL [2] | % Decrease + SD in CFU, 16 μg/mL [2] | % Decrease + SD in CFU, 32 μg/mL [2] | % Decrease + SD in CFU, 64 μg/mL [2] | effect of the antimicrobial against biofilms when combined with the D-AA mixture [2] | Planktonic (MIC) 103-700 [1, 5] | Planktonic (MIC) UAMS-1 ([1]; S. aureus UAMS-1, agents marked * in combination with equimolar 5 mM D-Phenylalanine, D-Tryptophan, D-Methionine)
0.5 µg/mL | 0.5 µg/mL | CO[C@H]1/C=C/O[C@@]2(C)Oc3c(C)c(O)c4c(O)c(c(/C=N/N5CCN(C)CC5)c(O)c4c3C2=O)NC(=O)/C(C)=C\C=C\[C@H](C)[C@H](O)[C@@H](C)[C@@H](O)[C@@H](C)[C@H](OC(C)=O)[C@@H]1C [RIF, Rifampin] | 32 µg/mL | 32 µg/mL | 16.87 ± 2.9% | 34.31 ± 5.4% | 70.70 ± 4.3% | 67.36 ± 1.2% | enhanced the effect |  | 
 |  | CN[C@H](CC(C)C)C(=O)N[C@H]1C(=O)N[C@@H](CC(N)=O)C(=O)N[C@H]2C(=O)N[C@H]3C(=O)N[C@H](C(=O)N[C@H](C(=O)O)c4cc(O)cc(O)c4-c4cc3ccc4O)[C@H](O)c3ccc(c(Cl)c3)Oc3cc2cc(c3O[C@@H]2O[C@H](CO)[C@@H](O)[C@H](O)[C@H]2O[C@H]2C[C@](C)(N)[C@H](O)[C@H](C)O2)Oc2ccc(cc2Cl)[C@H]1O [VAN, Vancomycin] | >64 µg/mL | >64 µg/mL | 1.5 ± 5.7% | 15.93 ± 6.2% | 31.90 ± 7.1% | 65.97 ± 5.3% | enhanced the effect | 1 µg/mL | 0.5 µg/mL
0.5 µg/mL | 0.5 µg/mL | CCC[C@@H]1C[C@@H](C(=O)N[C@@H]([C@H]2O[C@H](SC)[C@H](O)[C@@H](O)[C@H]2O)[C@H](C)Cl)N(C)C1 [CLI, Clindamycin] | >64 µg/mL | 64 µg/mL | 1.8 ± 1.0% | 9.3 ± 1.8% | 32.86 ± 4.3% | 66.0 ± 3.4% |  |  | 

Compound | MIC [1, 3] | MIC [1, 4] | Biofilm (MBIC) 103-700 [2] | Biofilm (MBIC) UAMS-1 [2] | % Decrease + SD in CFU, 8 μg/mL [2] | % Decrease + SD in CFU, 16 μg/mL [2] | % Decrease + SD in CFU, 32 μg/mL [2] | % Decrease + SD in CFU, 64 μg/mL [2] | effect of the antimicrobial against biofilms when combined with the D-AA mixture [2] | Planktonic (MIC) 103-700 [1, 5] | Planktonic (MIC) UAMS-1 ([1]; S. aureus UAMS-1, agents marked * in combination with equimolar 5 mM D-Phenylalanine, D-Tryptophan, D-Methionine)
Cc1onc(-c2ccccc2)c1C(=O)N[C@@H]1C(=O)N2[C@@H]1SC(C)(C)[C@@H]2C(=O)O [OXA, Oxacillin] | 8 µg/mL | 1 µg/mL | >64 µg/mL | >64 µg/mL |  |  |  |  |  | 8 µg/mL | 
